Where “and” joins values, the source holds several entries; their conditions need not be identical. Equal values may be shown once. Read-outs that look alike come from different tables or passages of the source.
What was measured:
HLA-A2.1 = HLA-A2.1 (Homo sapiens, UniProt P04439, D140Y/D185E/D98H/E176V/E277Q/G131W/G231S/I119V/I121R/I166T/I218V/L300P/L318F/N151K/N90K/P208A/P217A/Q86G/Q94H/R138H/R169H/T345S); test: Competition assay for peptide binding to HLA-A2.1 (inhibition of A clone 12 lysis of M1-pulsed EA2 targets)
[1] = tested on: A2.1/K^b×CD8 or A2.1 transgenic (Tg) mice; test: Immunization of transgenic mice with Her-2/neu peptides, cytotoxicity against peptide-pulsed T2-A2.1/K^b; assay type: in vivo; conditions: A2.1/K^b×CD8 or A2.1 Tg mice
Protocol: A2.1/K^b×CD8 and/or A2.1 transgenic mice were immunized with each of the peptides listed in Table 6 to determine if they could stimulate A2.1-restricted CTL. Mice were immunized with a mixture of 100 mg of the Her-2/neu peptide with 120 mg “helper” peptide in 100 ml Incomplete Freund's Adjuvant (IFA).
A2.1/K^b×CD8 or A2.1 lipopolysaccharide (LPS) -blasts were prepared as stimulators for in vitro restimulation of spleen cells from immunized mice. These were prepared by incubating splenocytes from A2/K^b or A2.1 mice in complete RPMI containing 25 mg/ml LPS and 7 mg/ml dextran sulfate at 1.5×10^6 cells/ml in a total volume of 30 ml for 3 days. […] Six days following in vitro restimulation, the CTL populations were assayed for lytic activity against T2-A2/K^b target cells preincubated with the peptide used for stimulation (15 mM). The resultant Her-2/neu peptide-specific CTL populations were maintained in vitro by weekly restimulation. […]
Spleen cells from injected animals were restimulated in vitro with irradiated syngeneic cells pulsed with the peptide used for in vivo priming. Immunogenicity was evaluated by assaying these cultured cells for cytotoxicity against T2-A2.1/K^b target cells pulsed with the priming peptide. […]

A2.1/K^b-Tg mice = test: Peptide priming of A2.1/K^b-Tg mice, lytic activity of peptide-specific CTL; assay type: in vivo
T98G = test: Cytotoxicity assay, lysis of human tumors by H3 and H7 specific CTL; assay type: cell-based
Protocol: (§1) […] target cells were incubated at 37° C. with […] of sodium ^51Cr chromate for 90 minutes in the presence or absence of specific peptide. Cells were washed three times and resuspended in 5% RPMI. For the assay, […] ^51Cr-labeled target cells were incubated with different concentrations of effector cells in a final volume of […] in U-bottomed 96-well plates. Supernatants were removed after 4-7 hrs at 37° C., and the percent specific lysis was determined by the following formula: [formula]
(§2) Tumor cells were preincubated for 24 hours prior to the assay in media supplemented with γ-interferon (γ-IFN, 20 ng/ml) plus tumor necrosis factor-α (TNF-α, 3 ng/ml). It is known that such pretreatment of tumor cells increases the expression of MHC I and adhesion molecules such as ICAM I on the surface of the cell thus enhancing their sensitivity to lysis by CTL. (See, e.g., Fisk, et al., Lympho. & Cytokine Res. 13: 125-131 (1994); Fady, et al., Cancer Immunol. Immunother. 37: 329-336 (1993).)

ST486 = test: as above; assay type: cell-based
Protocol: as §1, §2

U2-OS = test: as above; assay type: cell-based
Protocol: as §1, §2

SAOS.175 = test: as above; assay type: cell-based
Protocol: as §1, §2

OVCAR-5 = test: as above; assay type: cell-based
Protocol: as §1, §2

SKMEL-5 = test: as above; assay type: cell-based
Protocol: as §1, §2

SV80 = test: as above; assay type: cell-based
Protocol: as §1, §2

LG-2 = test: as above; assay type: cell-based
Protocol: as §1, §2

CASKI = test: as above; assay type: cell-based
Protocol: as §1, §2

MALME-3M = test: as above; assay type: cell-based; set-up: scale not given here
Protocol: as §1, §2

JY = test: as above; assay type: cell-based; set-up: scale not given here
Protocol: as §1, §2

MDA.MB435 = test: as above; assay type: cell-based; set-up: scale not given here
Protocol: as §1, §2

Hep-G2 = test: as above; assay type: cell-based; conditions: Hepatoma, A2 +
Protocol: as §1, §2

NCI.H1355 = test: as above; assay type: cell-based; conditions: Lung, A2 +
Protocol: as §1, §2

MDA.M8231 = test: as above; assay type: cell-based; conditions: Breast, A2 +
Protocol: as §1, §2

U87G = test: as above; assay type: cell-based; conditions: Glioblastoma, A2 +
Protocol: as §1, §2

MCF-7 = test: as above; assay type: cell-based; conditions: Breast, A2 +
Protocol: as §1, §2

SW480 = test: as above; assay type: cell-based; conditions: Colon, A2 +
Protocol: as §1, §2

BT549 = test: as above; assay type: cell-based; conditions: Breast, A2 +
Protocol: as §1, §2

[2] = E:T 60:1, T2A2/K^b targets pulsed with two mg of peptide, highest of at least three individual mice
[3] = peptide-priming of A2.1/K^b-Tg mice
[4] = Lymphoma, A2 +, Her-2 −, + CYT (γ-IFN 20 ng/ml plus TNF-α 3 ng/ml, 24 hours)
[5] = Lymphoma, A2 +, Her-2 −, without cytokines
[6] = + CYT (γ-IFN 20 ng/ml plus TNF-α 3 ng/ml, 24 hours)
[7] = Osteosarcoma, A2 +, Her-2 +, + CYT (γ-IFN 20 ng/ml plus TNF-α 3 ng/ml, 24 hours)
[8] = Osteosarcoma, A2 +, Her-2 +, without cytokines
[9] = Melanoma, A2 +, Her-2 +, + CYT (γ-IFN 20 ng/ml plus TNF-α 3 ng/ml, 24 hours)
[10] = Melanoma, A2 +, Her-2 +, without cytokines

ASNENMETM [Flu NP 1934: 366-374, reference compound]
(%) [inhibition of A2.1-binding of M1 (58-66)] (HLA-A2.1): 4%

IISAVVGIL [Peptide H11]
ability to stimulate a CTL response in Tg mice, in words [1]: could not elicit a response

NLLGRNSFEV [hu-wt-p53: 263-272]
Lytic Activity by Peptide-Specific CTL After Priming of A2.1/K^b-Tg Mice [Specific 51Cr release (%)] (A2.1/K^b-Tg mice; [2]): 3%

NTFRHSVVV [hu-wt-p53: 210-218]
Lytic Activity by Peptide-Specific CTL After Priming of A2.1/K^b-Tg Mice [Specific 51Cr release (%)] (A2.1/K^b-Tg mice; [2]): 6%

AAPPVAPAPA [hu-wt-p53: 69-78]
Lytic Activity by Peptide-Specific CTL After Priming of A2.1/K^b-Tg Mice [Specific 51Cr release (%)] (A2.1/K^b-Tg mice; [2]): 0%

KLVGKLNWA [HIV-9K, reference compound]
Killing of Tumors Expressing Her-2/neu (T98G): 9 and 13
Killing of Tumors Expressing Her-2/neu (ST486): 1
Killing of Tumors Expressing Her-2/neu (U2-OS): 18 and 24
Killing of Tumors Expressing Her-2/neu (SAOS.175): 18 and 11
Killing of Tumors Expressing Her-2/neu (OVCAR-5): 10 and 12
Killing of Tumors Expressing Her-2/neu (SKMEL-5): 5 and 4
Killing of Tumors Expressing Her-2/neu (SV80): 2
Killing of Tumors Expressing Her-2/neu (LG-2): 1
Killing of Tumors Expressing Her-2/neu (CASKI): 8 and 11
Killing of Tumors Expressing Her-2/neu (MALME-3M): 2 and 1
Killing of Tumors Expressing Her-2/neu (JY): 2 and 1
Killing of Tumors Expressing Her-2/neu (MDA.MB435): 4 and 3

STPPPGTRV [hu-wt-p53: 149-157]
A2.1-binding activity / affinity, in words (HLA-A2.1): intermediate affinity
A2.1/K^b-restricted peptide-specific CTL response, in words (A2.1/K^b-Tg mice; mouse, in vivo): detectable
Lytic Activity by Peptide-Specific CTL After Priming of A2.1/K^b-Tg Mice [Specific 51Cr release (%)] (A2.1/K^b-Tg mice; mouse, in vivo): 91%

AAPPVAPAPAA [hu-wt-p53: 69-79]
Lytic Activity by Peptide-Specific CTL After Priming of A2.1/K^b-Tg Mice [Specific 51Cr release (%)] (A2.1/K^b-Tg mice; [2]): 0%

DLMLSPDDI [hu-wt-p53: 42-50]
Lytic Activity by Peptide-Specific CTL After Priming of A2.1/K^b-Tg Mice [Specific 51Cr release (%)] (A2.1/K^b-Tg mice; [2]): 0%

GLAPPQHLI [hu-wt-p53: 187-195]
A2.1-binding activity / affinity, in words (HLA-A2.1): high
Lytic Activity by Peptide-Specific CTL After Priming of A2.1/K^b-Tg Mice [Specific 51Cr release (%)] (A2.1/K^b-Tg mice; [2]): 1%
A2.1/K^b-restricted peptide-specific CTL response, in words (A2.1/K^b-Tg mice; [3]): lack of CTL responsiveness

LLGRDSFEV [mur-wt-p53: 261-269]
A2.1-binding activity / affinity, in words (HLA-A2.1; competition with M1 (58-66)): highest A2.1-binding activity of all p53 peptides tested
Lytic Activity by Peptide-Specific CTL After Priming of A2.1/K^b-Tg Mice [Specific 51Cr release (%)] (A2.1/K^b-Tg mice; [2]): 10%
A2.1/K^b-restricted peptide-specific CTL response, in words (A2.1/K^b-Tg mice; [3]): No significant response

VMAGVGSPYV [Peptide H7]
Killing of Tumors Expressing Her-2/neu (T98G; Glioblastoma, A2 +, Her-2 +, + CYT (γ-IFN 20 ng/ml plus TNF-α 3 ng/ml, 24 hours)): 93
Killing of Tumors Expressing Her-2/neu (T98G; Glioblastoma, A2 +, Her-2 +, without cytokines): 29
Killing of Tumors Expressing Her-2/neu (ST486; [4]): 8
Killing of Tumors Expressing Her-2/neu (ST486; [5]): 5
Killing of Tumors Expressing Her-2/neu (Hep-G2; [6]): 29
Killing of Tumors Expressing Her-2/neu (Hep-G2; without cytokines): 4
Killing of Tumors Expressing Her-2/neu (U2-OS; [7]): 62
Killing of Tumors Expressing Her-2/neu (U2-OS; [8]): 30
Killing of Tumors Expressing Her-2/neu (NCI.H1355; [6]): 62
Killing of Tumors Expressing Her-2/neu (NCI.H1355; without cytokines): 13
Killing of Tumors Expressing Her-2/neu (SAOS.175; [7]): 35
Killing of Tumors Expressing Her-2/neu (SAOS.175; [8]): 27
Killing of Tumors Expressing Her-2/neu (OVCAR-5; Ovarian, A2 +, Her-2 +, + CYT (γ-IFN 20 ng/ml plus TNF-α 3 ng/ml, 24 hours)): 23
Killing of Tumors Expressing Her-2/neu (OVCAR-5; Ovarian, A2 +, Her-2 +, without cytokines): 13
Killing of Tumors Expressing Her-2/neu (MDA.M8231; [6]): 89
Killing of Tumors Expressing Her-2/neu (MDA.M8231; without cytokines): 26
Killing of Tumors Expressing Her-2/neu (SKMEL-5; [9]): 40
Killing of Tumors Expressing Her-2/neu (SKMEL-5; [10]): 16
Killing of Tumors Expressing Her-2/neu (U87G; [6]): 1
Killing of Tumors Expressing Her-2/neu (U87G; without cytokines): 1
Killing of Tumors Expressing Her-2/neu (MCF-7; [6]): 40
Killing of Tumors Expressing Her-2/neu (MCF-7; without cytokines): 7
Killing of Tumors Expressing Her-2/neu (SV80; Fibroblast, A2 +, Her-2 −, + CYT (γ-IFN 20 ng/ml plus TNF-α 3 ng/ml, 24 hours)): 2
Killing of Tumors Expressing Her-2/neu (SV80; Fibroblast, A2 +, Her-2 −, without cytokines): 2
Killing of Tumors Expressing Her-2/neu (SW480; [6]): 17
Killing of Tumors Expressing Her-2/neu (SW480; without cytokines): 2
Killing of Tumors Expressing Her-2/neu (BT549; [6]): 36
Killing of Tumors Expressing Her-2/neu (BT549; without cytokines): 2
Killing of Tumors Expressing Her-2/neu (LG-2; EBV-trans., A2 +, Her-2 −, + CYT (γ-IFN 20 ng/ml plus TNF-α 3 ng/ml, 24 hours)): 3
Killing of Tumors Expressing Her-2/neu (LG-2; EBV-trans., A2 +, Her-2 −, without cytokines): 1
Killing of Tumors Expressing Her-2/neu (CASKI; Cervix, A2 +, Her-2 +, + CYT (γ-IFN 20 ng/ml plus TNF-α 3 ng/ml, 24 hours)): 20
Killing of Tumors Expressing Her-2/neu (CASKI; Cervix, A2 +, Her-2 +, without cytokines): 9
Killing of Tumors Expressing Her-2/neu (MALME-3M; [9]): 14
Killing of Tumors Expressing Her-2/neu (MALME-3M; [10]): 4
Killing of Tumors Expressing Her-2/neu (JY; [4]): 2
Killing of Tumors Expressing Her-2/neu (JY; [5]): 4
Killing of Tumors Expressing Her-2/neu (MDA.MB435; Breast, A2 −, Her-2 +, + CYT (γ-IFN 20 ng/ml plus TNF-α 3 ng/ml, 24 hours)): 1
Killing of Tumors Expressing Her-2/neu (MDA.MB435; Breast, A2 −, Her-2 +, without cytokines): 1
ability to stimulate a CTL response in Tg mice, in words [1]: able to stimulate a CTL response

From patent US20030022820A1, “IN VIVO ACTIVATION OF TUMOR-SPECIFIC CYTOTOXIC T CELLS” (priority 1995, published 2003)
